Measured values as given in paper PMC6402572 (ChemMedChem, 2018).

Key:
HCT116 cells = assay: Soft agar anchorage-independent growth assay, HCT116 cells; assay type: cell-based; conditions: read-out: GI50, anchorage-independent growth of HCT116 cells, Control, without SIRT2 overexpression
[1] = tested on: HCT116 cells with SIRT2 overexpression; conditions: read-out: GI50, anchorage-independent growth of HCT116 cells, SIRT2 expression, soft agar
SIRT3 = target: T1, SIRT3 (Homo sapiens, UniProt Q9NTG7); assay: HPLC-based SIRT3 deacetylation assay; assay type: biochemical; conditions: with pre-incubation
T1 sequence (Q9NTG7 1-399): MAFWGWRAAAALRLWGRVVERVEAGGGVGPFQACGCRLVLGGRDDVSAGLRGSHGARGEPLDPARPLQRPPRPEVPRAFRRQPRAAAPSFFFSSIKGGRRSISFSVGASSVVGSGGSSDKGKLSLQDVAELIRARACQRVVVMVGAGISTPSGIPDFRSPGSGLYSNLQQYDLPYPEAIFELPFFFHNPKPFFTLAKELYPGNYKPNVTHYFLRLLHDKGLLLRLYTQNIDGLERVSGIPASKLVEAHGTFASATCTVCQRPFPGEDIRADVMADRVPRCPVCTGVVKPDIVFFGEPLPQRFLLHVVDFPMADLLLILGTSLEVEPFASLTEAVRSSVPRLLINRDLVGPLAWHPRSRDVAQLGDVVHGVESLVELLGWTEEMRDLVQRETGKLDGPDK

SIRT6 = SIRT6 (Homo sapiens, UniProt Q8N6T7); assay: HPLC-based SIRT6 demyristoylation assay; assay type: biochemical; conditions: with pre-incubation
MCF10A cells = assay: Cytotoxicity; assay type: cell-based; conditions: read-out: GI50 in MCF10A cells; normal mammary epithelial cell line
HME-1 cells = assay: Cytotoxicity; assay type: cell-based; conditions: read-out: GI50 in HME-1 cells; normal mammary epithelial cell line

Chain of SIRT6 (Q8N6T7 whole entry, species assumed): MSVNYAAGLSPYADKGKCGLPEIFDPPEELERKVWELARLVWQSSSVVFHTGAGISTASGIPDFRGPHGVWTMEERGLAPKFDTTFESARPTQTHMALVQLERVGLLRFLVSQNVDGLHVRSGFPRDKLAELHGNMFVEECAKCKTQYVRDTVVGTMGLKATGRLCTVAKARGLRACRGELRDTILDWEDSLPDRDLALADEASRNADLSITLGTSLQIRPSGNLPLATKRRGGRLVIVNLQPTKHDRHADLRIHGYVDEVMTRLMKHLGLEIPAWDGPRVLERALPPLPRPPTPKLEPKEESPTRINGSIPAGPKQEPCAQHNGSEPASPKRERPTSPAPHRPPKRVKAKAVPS

GI50 (HCT116 cells)	GI50 [1]	Inhibition of SIRT3 (SIRT3)	Inhibition of SIRT6 (SIRT6)	Structure (SMILES)	GI50 (MCF10A cells)	GI50 (HME-1 cells)
24.1 µM	27.6 µM			N#C/C(=C\c1ccc(-c2cc(Cl)ccc2Cl)o1)C(=O)Nc1cccc2ncccc12 [AGK2]		
55.8 µM	58.1 µM			Cc1cc(C)nc(SCC(=O)Nc2ncc(Cc3cccc4ccccc34)s2)n1 [SirReal2]		
13.5 µM	24.2 µM	essentially did not inhibit	essentially did not inhibit	CCCCCCCCCCCCCC(=S)NCCCCC(NC(=O)OCc1ccccc1)C(=O)Nc1ccccc1 (centres unmarked) [TM]	> 50 µM	> 50 µM
2.1 µM				CN(C)CCCCC(=O)Nc1ccc(NC(=S)NC(=O)c2ccc(C(C)(C)C)cc2)cc1 [Tenovin-6]		
